Residues, ends and D or L forms follow the SMILES beside them. No end group written: not given here. *: point of attachment. αMan = OC[C@H]1O[C@H](*)[C@@H](O)[C@@H](O)[C@@H]1O; X2 = OC[C@H]1O[C@H](*)[C@H](O)[C@@H](O)[C@@H]1O; X1 = OC[C@H]1O[C@H](*)[C@H](O)[C@@H](O)[C@H]1O
Key:
thermolysin = target: T1, thermolysin (Bacillus thermoproteolyticus, UniProt P00800); assay: Thermolysin digestion of linker variants (half-life to thermolysin degradation, MALDI-TOF MS); type: in vitro ADME; conditions: for half-life: thermolysin in digestion buffer, average ± spread of three independent trials, quantitative MALDI-TOF MS; for half-life / Half-life to thermolysin degradation, Trial 1 / Half-life to thermolysin degradation, Trial 2 / Half-life to thermolysin degradation, Trial 3: thermolysin 1 µg/µL (25 µL) added to linker 2 µg/µL (25 µL), 50 mM Tris·HCl, 0.5 mM CaCl2, pH 8.0, 37 °C, aliquots 0-420 min; for half-life / Half-life to thermolysin degradation, Trial 2 / Half-life to thermolysin degradation, Trial 3: first-order exponential decay fit; for Half-life to thermolysin degradation, Trial 1: trial 1 of three independent trials, first-order exponential decay fit of full-length linker; for Half-life to thermolysin degradation, Trial 1 / Half-life to thermolysin degradation, Trial 2 / Half-life to thermolysin degradation, Trial 3: quantitative MALDI-TOF MS with internal standard; for Half-life to thermolysin degradation, Trial 2: trial 2 of three independent trials; for Half-life to thermolysin degradation, Trial 3: trial 3 of three independent trials
T1 sequence (P00800 233-548): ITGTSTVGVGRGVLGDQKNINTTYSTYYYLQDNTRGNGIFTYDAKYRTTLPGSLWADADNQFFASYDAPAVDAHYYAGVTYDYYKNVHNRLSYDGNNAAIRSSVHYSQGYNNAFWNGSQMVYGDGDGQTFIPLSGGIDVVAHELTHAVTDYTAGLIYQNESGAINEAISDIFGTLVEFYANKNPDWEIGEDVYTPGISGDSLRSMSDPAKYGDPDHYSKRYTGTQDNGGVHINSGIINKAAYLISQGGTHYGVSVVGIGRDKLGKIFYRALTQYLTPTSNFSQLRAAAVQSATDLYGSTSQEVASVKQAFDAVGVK
From the text: O-Mannosylation is strongly preferred for proteolysis protection of a model fungal IDP. To investigate how glycan identity affects IDP proteolytic stability, we employed the naturally O-mannosylated linker from the Trichoderma reesei glycoside hydrolase family 7 cellobiohydrolase, TrCel7A, as a model.[10] This enzyme is one of the most important industrial cellulases and its linker is a well-studied O-mannosylated IDP.[11]–[14] The α-anomeric configuration was chosen since it is the only type reported so far in reducing terminal mannose residues of O-mannosylated proteins from fungi and yeasts.[8] We used […] glycopeptide synthesis[12],[15],[16] to produce four variants (Fig. 1), including the non-glycosylated linker, and measured the half-life to thermolysin degradation with MALDI-TOF MS (Fig. S1–S4 ^†).[15]–[19] […]
1.1. Experimental material and equipm ent
All commercial reagents and solvents were used as received. All LC-MS analyses were performed using a Waters Acquity TM Ultra Performance LC system equipped with Acquity UPLC® BEH 300 C4, 1.7µm, 2.1 x 100 mm column at flow rates of 0.3 mL/min. The mobile phase for LC -MS analysis was a mixture of H2O (0.1% formic acid, v /v, A) and acetonitrile (0.1% formic acid, v/v, B). […]
Mass spectrometric analysis done with a Waters SYNAPT G2-S LC-MS system was us ed to confirm the identity and homogeneity of the synthetic peptides. MALDI-TOF mas s spectrometr ic analysis done with an AB/Sciex Voyager DE-STR system was used to determine the proteolytic stability (half-life to thermolysin degradation) of the synthetic peptides (Fig. S1-S4). […]
1.3. General procedure for the thermolysin digestion of linker variants The thermolysin digestions were performed following previously described procedures.2 The digestion s of glycosylated linkers were carried out at 37 °C in 25 µL of digestion buffer (50 mM Tris·HCl buffer, 0.5 mM CaCl2, pH 8.0) with an initial linker concentration of 2 µg/µL. 25 µL of thermolysin (1 µg/µL in the digestion buffer) was added to linker solution; 1 µL aliquots were taken at specific time intervals (0, […]
µL of acetonitrile/H2O/AcOH (20/20/1, v/v) and 3 µL of standard solution [0.17 µg/µL non-glycosylated linker in acetonitrile/H2O/AcOH (20/20/1, v/v)]. Each sample was analyzed by quantitative MALDI-TOF MS to calculate the change in concentration of glycosylated linkers with time. The digestion rate was determined by monitoring and fitting data to the first-order exponential decay of the full-length glycosylated linkers over time. Digestion and analysis of non-glycosylat ed linker was done exactly a s described above for glycosylated linkers except that the Lman was used as the internal standard. All the digestion processes were repeated for three independent trials.
1.4. Temperature replica exchange simulations
Model syst ems. This work compares the dynamical and structural behavior of four variants of the Cel7A linker from Trichoderma reesei (TrCel7A). This set includes the non-glycosylated linker and the linker homogeneously decorated with O-linked α-mannosyl, α-glucosyl, and α-galactosyl moieties (Fig. S9A).
Complementary simulations and analyses were also performed with the linker decorated with longer glycans comprising mannobiosyl and galactobiosyl moieties, as well as with the putative natural decoration proposed by Harrison et al.3 (Fig. S9B) . A set of four variants of the “PT linker” was also studied, including the non -glycosylated linker and the variants with the same three glycans (Fig. S9C).
Finally, we also performed simulations of tripeptides with a single site of glyco sylation, resulting in the […]

| Molecule | half-life (thermolysin) [min] | Half-life to thermolysin degradation, Trial 1 (thermolysin) [min] | Half-life to thermolysin degradation, Trial 2 (thermolysin) [min] | Half-life to thermolysin degradation, Trial 3 (thermolysin) [min] | enhancement of protection against proteolysis relative to non-glycosylated parent IDP [fold] | Improvement of proteolytic stability over the non-glycosylated linker LNG (thermolysin; ratio of half-lives to thermolysin degradation, relative to LNG) [fold] | Proteolysis protection over the O-galactosylated linker (Lgal) (thermolysin; ratio of half-lives to thermolysin degradation, relative to Lgal) [fold] | Proteolysis protection over the O-glucosylated linker (Lglc) (thermolysin; ratio of half-lives to thermolysin degradation, relative to Lglc) [fold] |
| --- | --- | --- | --- | --- | --- | --- | --- | --- |
| C[C@H](NC(=O)[C@@H]1CCCN1C(=O)[C@H](CCCNC(=N)N)NC(=O)[C@H](CCCNC(=N)N)NC(=O)[C@@H](NC(=O)[C@@H](NC(=O)[C@@H](NC(=O)[C@@H](NC(=O)CNC(=O)[C@@H]1CCCN1C(=O)[C@@H]1CCCN1C(=O)[C@H](CC(N)=O)NC(=O)CNC(=O)CNC(=O)[C@@H]1CCCN1C(=O)[C@@H]1CCCN1C(=O)[C@H](CC(N)=O)NC(=O)CN)[C@@H](C)O[C@H]1O[C@H](CO)[C@H](O)[C@H](O)[C@H]1O)[C@@H](C)O[C@H]1O[C@H](CO)[C@H](O)[C@H](O)[C@H]1O)[C@@H](C)O[C@H]1O[C@H](CO)[C@H](O)[C@H](O)[C@H]1O)[C@@H](C)O[C@H]1O[C@H](CO)[C@H](O)[C@H](O)[C@H]1O)C(=O)N[C@H](C(=O)N[C@H](C(=O)N[C@H](C(=O)NCC(=O)N[C@@H](CO[C@H]1O[C@H](CO)[C@H](O)[C@H](O)[C@H]1O)C(=O)N[C@@H](CO[C@H]1O[C@H](CO)[C@H](O)[C@H](O)[C@H]1O)C(=O)N1CCC[C@H]1C(=O)NCC(=O)N1CCC[C@H]1C(=O)O)[C@@H](C)O[C@H]1O[C@H](CO)[C@H](O)[C@H](O)[C@H]1O)[C@@H](C)O[C@H]1O[C@H](CO)[C@H](O)[C@H](O)[C@H]1O)[C@@H](C)O[C@H]1O[C@H](CO)[C@H](O)[C@H](O)[C@H]1O [Lgal] (H-GNPPGGNPPGT(X1)T(X1)T(X1)T(X1)RRPAT(X1)T(X1)T(X1)GS(X1)S(X1)PGP-OH; N-terminus and C-terminus assumed) | 9.8 ± 2 | 8.5 | 8.8 | 12.1 | 10 | – | – | – |
| C[C@H](NC(=O)[C@@H]1CCCN1C(=O)[C@H](CCCNC(=N)N)NC(=O)[C@H](CCCNC(=N)N)NC(=O)[C@@H](NC(=O)[C@@H](NC(=O)[C@@H](NC(=O)[C@@H](NC(=O)CNC(=O)[C@@H]1CCCN1C(=O)[C@@H]1CCCN1C(=O)[C@H](CC(N)=O)NC(=O)CNC(=O)CNC(=O)[C@@H]1CCCN1C(=O)[C@@H]1CCCN1C(=O)[C@H](CC(N)=O)NC(=O)CN)[C@@H](C)O[C@H]1O[C@H](CO)[C@@H](O)[C@H](O)[C@H]1O)[C@@H](C)O[C@H]1O[C@H](CO)[C@@H](O)[C@H](O)[C@H]1O)[C@@H](C)O[C@H]1O[C@H](CO)[C@@H](O)[C@H](O)[C@H]1O)[C@@H](C)O[C@H]1O[C@H](CO)[C@@H](O)[C@H](O)[C@H]1O)C(=O)N[C@H](C(=O)N[C@H](C(=O)N[C@H](C(=O)NCC(=O)N[C@@H](CO[C@H]1O[C@H](CO)[C@@H](O)[C@H](O)[C@H]1O)C(=O)N[C@@H](CO[C@H]1O[C@H](CO)[C@@H](O)[C@H](O)[C@H]1O)C(=O)N1CCC[C@H]1C(=O)NCC(=O)N1CCC[C@H]1C(=O)O)[C@@H](C)O[C@H]1O[C@H](CO)[C@@H](O)[C@H](O)[C@H]1O)[C@@H](C)O[C@H]1O[C@H](CO)[C@@H](O)[C@H](O)[C@H]1O)[C@@H](C)O[C@H]1O[C@H](CO)[C@@H](O)[C@H](O)[C@H]1O [Lglc] (H-GNPPGGNPPGT(X2)T(X2)T(X2)T(X2)RRPAT(X2)T(X2)T(X2)GS(X2)S(X2)PGP-OH; N-terminus and C-terminus assumed) | 53.7 ± 8.1 | 53.3 | 62.0 | 45.9 | – | – | – | – |
| C[C@H](NC(=O)[C@@H]1CCCN1C(=O)[C@H](CCCNC(=N)N)NC(=O)[C@H](CCCNC(=N)N)NC(=O)[C@@H](NC(=O)[C@@H](NC(=O)[C@@H](NC(=O)[C@@H](NC(=O)CNC(=O)[C@@H]1CCCN1C(=O)[C@@H]1CCCN1C(=O)[C@H](CC(N)=O)NC(=O)CNC(=O)CNC(=O)[C@@H]1CCCN1C(=O)[C@@H]1CCCN1C(=O)[C@H](CC(N)=O)NC(=O)CN)[C@@H](C)O[C@H]1O[C@H](CO)[C@@H](O)[C@H](O)[C@@H]1O)[C@@H](C)O[C@H]1O[C@H](CO)[C@@H](O)[C@H](O)[C@@H]1O)[C@@H](C)O[C@H]1O[C@H](CO)[C@@H](O)[C@H](O)[C@@H]1O)[C@@H](C)O[C@H]1O[C@H](CO)[C@@H](O)[C@H](O)[C@@H]1O)C(=O)N[C@H](C(=O)N[C@H](C(=O)N[C@H](C(=O)NCC(=O)N[C@@H](CO[C@H]1O[C@H](CO)[C@@H](O)[C@H](O)[C@@H]1O)C(=O)N[C@@H](CO[C@H]1O[C@H](CO)[C@@H](O)[C@H](O)[C@@H]1O)C(=O)N1CCC[C@H]1C(=O)NCC(=O)N1CCC[C@H]1C(=O)O)[C@@H](C)O[C@H]1O[C@H](CO)[C@@H](O)[C@H](O)[C@@H]1O)[C@@H](C)O[C@H]1O[C@H](CO)[C@@H](O)[C@H](O)[C@@H]1O)[C@@H](C)O[C@H]1O[C@H](CO)[C@@H](O)[C@H](O)[C@@H]1O [Lman] (H-GNPPGGNPPGT(αMan)T(αMan)T(αMan)T(αMan)RRPAT(αMan)T(αMan)T(αMan)GS(αMan)S(αMan)PGP-OH; N-terminus and C-terminus assumed) | 164 ± 32.9 | 163.9 | 196.4 | 130.5 | – | 112 | 16 | 3 |
| GNPPGGNPPGTTTTRRPATTTGSSPGP-OH [LNG] | 1.5 ± 0.2 | 1.6 | 1.5 | 1.2 | – | – | – | – |

From publication PMC5939190, “The impact of O-glycan chemistry on the stability of intrinsically disordered proteins” (Chemical Science, 2018)
